Laboratory results published in patent US20260183407A1, “DYRK/CLK PROTACS AND USES THEREOF” (Arizona Board of Regents on Behalf of the University of …, priority 2022, published 2026).

Tests used:
DYRK1A [1] = target: T1, DYRK1A (Homo sapiens, UniProt Q13627); assay: HiBiT split luciferase assay of targeted degradation of DYRK1A in Flp-In T-REx 293 cells; format: cell-based; conditions: 300 nM compound, 24 h, HiBiT-tagged DYRK1A in Flp-In T-REx 293 cells, normalized to vehicle; read-out: Relative Degradation at 300 nM DYRK1A
T1 construct: purchased Eurofins; host or cells: E. coli BL21-derived (T7 phage display) or HEK-293

DYRK1B [2] = target: T2, DYRK1B (Homo sapiens, UniProt Q9Y463); assay: HiBiT split luciferase assay of targeted degradation of DYRK1B in Flp-In T-REx 293 cells; format: cell-based; conditions: 300 nM compound, 24 h, HiBiT-tagged DYRK1B in Flp-In T-REx 293 cells, normalized to vehicle; read-out: Relative Degradation at 300 nM DYRK1B
T2 construct: purchased Eurofins; host or cells: E. coli BL21-derived (T7 phage display) or HEK-293
T2 sequence (Q9Y463 whole entry, species assumed): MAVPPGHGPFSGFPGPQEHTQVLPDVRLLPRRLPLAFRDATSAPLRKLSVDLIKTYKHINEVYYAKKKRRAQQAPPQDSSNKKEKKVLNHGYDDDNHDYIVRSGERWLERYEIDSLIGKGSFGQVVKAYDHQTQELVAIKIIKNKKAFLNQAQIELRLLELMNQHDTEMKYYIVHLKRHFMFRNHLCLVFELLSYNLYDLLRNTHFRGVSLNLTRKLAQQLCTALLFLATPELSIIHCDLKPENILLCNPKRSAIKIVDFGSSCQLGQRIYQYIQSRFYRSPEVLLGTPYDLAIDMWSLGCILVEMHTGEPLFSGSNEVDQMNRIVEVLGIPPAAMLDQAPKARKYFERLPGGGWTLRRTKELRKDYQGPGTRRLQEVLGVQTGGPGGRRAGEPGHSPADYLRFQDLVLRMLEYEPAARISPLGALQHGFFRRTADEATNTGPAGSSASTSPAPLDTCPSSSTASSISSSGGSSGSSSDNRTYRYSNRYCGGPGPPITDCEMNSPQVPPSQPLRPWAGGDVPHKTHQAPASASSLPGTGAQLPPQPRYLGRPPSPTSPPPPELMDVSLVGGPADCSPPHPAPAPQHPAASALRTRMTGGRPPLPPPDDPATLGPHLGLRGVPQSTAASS
Source text: The Flp-In T-REx 293 Cell Line and the pcDNA5/FRT/TO vector (Invitrogen) were used to generate stable cell clones for tetracyclin-inducible expression of DYRK1A and DYRK1B. These cells contain a single stably integrated Flp recognition target (FRT) site, which allows for site-specific integration of the expression cassette by the Flp (Flippase) recombinase. DYRK1 constructs were designed to contain a C-terminal HiBiT tag for quantitative detection of HiBiT-tagged proteins in cellular lysates with the help a split luciferase assay (Nano-Glo HiBiT Lytic Detection System, Promega). To monitor the targeted degradation of DYRK1A or DYRK1B, cells were seeded in 96-well plates (10,000 cells/per well) and treated with doxycyclineinal concentration 2 μg/ml) to induce DYRK1 expression. Compounds with presumed PROTAC activity were administered 24 h after seeding. After further incubation for 24 h, cells were grossly and microscopically inspected for overt toxicity. Cells were lysed in 100 μL ice-cold passive lysis buffer (PLB, Promega) by orbital shaking (30 min on ice) before lysates were centrifuged in PCR tube (20 min 20,000 g, RT). A 10 μl aliquot of the supernatant was subjected to the HiBiT lytic assay. Luminescence was quantified in an Orion Microplate luminometer (Berthold Detection System, Germany). All compounds were tested in duplicate or triplicate wells (technical replicates) and at least two independent experiments. Relative degradation was calculated by normalization to vehicle-treated control samples.

DYRK1A [3] = target: T1, DYRK1A; assay: KdELECT kinase binding assay (Eurofins), DYRK1A; conditions: 11-point 3-fold dilution series, qPCR readout; read-out: Binding Affinity (Kd) DYRK1A
DYRK1B [4] = target: T2, DYRK1B; assay: KdELECT kinase binding assay (Eurofins), DYRK1B; conditions: 11-point 3-fold dilution series, qPCR readout; read-out: Binding Affinity (Kd) DYRK1B

inhibition at 0.3 µM (DYRK1A [1]) | inhibition at 0.3 µM (DYRK1B [2]) | Kd (DYRK1A [3]) | Kd (DYRK1B [4]) | Structure (SMILES)
> 60% | < 30% | 10 to 100 nM | 10 to 100 nM | Cc1nc2ccc(-c3ccnc(N)c3)nc2n1-c1ccc(N2CCN(CC#Cc3ccc(N4CCC(C(=O)N5CCC(n6cc(CNc7cccc8c7C(=O)N(C7CCC(=O)NC7=O)C8=O)cn6)CC5)CC4)nc3)CC2)c(C(F)(F)F)c1 (stereo not drawn) [Compound 24, 4-(((1-(1-(1-(5-(3-(4-(4-(5-(2-aminopyridin-4-yl)-2-methyl-3H-imidazo[4,5-b]pyridin-3-yl)-2-(trifluoromethyl)phenyl)piperazin-1-yl)prop-1-yn-1-yl)pyridin-2-yl)piperidine-4-carbonyl)piperidin-4-yl)-1H-pyrazol-4-yl)methyl)amino)-2-(2,6-dioxopiperidin-3-yl)isoindoline-1,3-dione]
30 to 60% | < 30% | < 10 nM | < 10 nM | Cc1nc2ccc(-c3ccnc(N)c3)nc2n1-c1ccc(N2CCN(CCOCCOCCOCCNc3cccc4c3C(=O)N(C3CCC(=O)NC3=O)C4=O)CC2)c(F)c1 (stereo not drawn) [Compound 6, 4-((2-(2-(2-(2-(4-(4-(5-(2-aminopyridin-4-yl)-2-methyl-3H-imidazo[4,5-b]pyridin-3-yl)-2-fluorophenyl)piperazin-1-yl)ethoxy)ethoxy)ethoxy)ethyl)amino)-2-(2,6-dioxopiperidin-3-yl)isoindoline-1,3-dione]
> 60% | > 50% | < 10 nM | < 10 nM | Cc1nc2ccc(-c3ccnc(N)c3)nc2n1-c1cc(F)c(N2CCN(CC#Cc3ccc(N4CCC(C(=O)N5CCC(n6cc(CNc7cccc8c7C(=O)N(C7CCC(=O)NC7=O)C8=O)cn6)CC5)CC4)nc3)CC2)c(F)c1 (stereo not drawn) [Compound 23, 4-(((1-(1-(1-(5-(3-(4-(4-(5-(2-aminopyridin-4-yl)-2-methyl-3H-imidazo[4,5-b]pyridin-3-yl)-2,6-difluorophenyl)piperazin-1-yl)prop-1-yn-1-yl)pyridin-2-yl)piperidine-4-carbonyl)piperidin-4-yl)-1H-pyrazol-4-yl)methyl)amino)-2-(2,6-dioxopiperidin-3-yl)isoindoline-1,3-dione]
> 60% | > 50% | 10 to 100 nM | 10 to 100 nM | Cc1nc2ccc(-c3ccnc(N)c3)nc2n1-c1ccc(N2CCN(CC#Cc3cncc(N4CCC(C(=O)N5CCC(n6cc(CNc7cccc8c7C(=O)N(C7CCC(=O)NC7=O)C8=O)cn6)CC5)CC4)n3)CC2)c(F)c1 (stereo not drawn) [Compound 32, 4-(((1-(1-(1-(6-(3-(4-(4-(5-(2-aminopyridin-4-yl)-2-methyl-3H-imidazo[4,5-b]pyridin-3-yl)-2-fluorophenyl)piperazin-1-yl)prop-1-yn-1-yl)pyrazin-2-yl)piperidine-4-carbonyl)piperidin-4-yl)-1H-pyrazol-4-yl)methyl)amino)-2-(2,6-dioxopiperidin-3-yl)isoindoline-1,3-dione]
30 to 60% | < 30% | < 10 nM | 10 to 100 nM | Cc1nc2ccc(-c3ccnc(N)c3)nc2n1-c1ccc(N2C[C@@H]3C[C@H]2CN3CC#Cc2ccc(N3CCC(C(=O)N4CCC(n5cc(CNc6cccc7c6C(=O)N(C6CCC(=O)NC6=O)C7=O)cn5)CC4)CC3)nc2)c(F)c1 (stereo partly drawn) [Compound 20, 4-(((1-(1-(1-(5-(3-((1S,4S)-5-(4-(5-(2-aminopyridin-4-yl)-2-methyl-3H-imidazo[4,5-b]pyridin-3-yl)-2-fluorophenyl)-2,5-diazabicyclo[2.2.1]heptan-2-yl)prop-1-yn-1-yl)pyridin-2-yl)piperidine-4-carbonyl)piperidin-4-yl)-1H-pyrazol-4-yl)methyl)amino)-2-(2,6-dioxopiperidin-3-yl)isoindoline-1,3-dione]
30 to 60% | < 30% | < 10 nM | 10 to 100 nM | Cc1nc2ccc(-c3ccnc(N)c3)nc2n1-c1ccc(N2CCN(CCOCCOCCC(=O)N3CCN(Cc4ccc(CNc5cccc6c5CN(C5CCC(=O)NC5=O)C6=O)cc4)CC3)CC2)c(F)c1 (stereo not drawn) [Compound 10, 3-(4-((4-((4-(3-(2-(2-(4-(4-(5-(2-aminopyridin-4-yl)-2-methyl-3H-imidazo[4,5-b]pyridin-3-yl)-2-fluorophenyl)piperazin-1-yl)ethoxy)ethoxy)propanoyl)piperazin-1-yl)methyl)benzyl)amino)-1-oxoisoindolin-2-yl)piperidine-2,6-dione]
30 to 60% | 30 to 50% | < 10 nM | < 10 nM | Cc1nc2ccc(-c3ccnc(N)c3)nc2n1-c1ccc(N2CCN(CCOCCOCCOCCOCCNc3cccc4c3C(=O)N(C3CCC(=O)NC3=O)C4=O)CC2)c(F)c1 (stereo not drawn) [Compound 7, 4-((14-(4-(4-(5-(2-aminopyridin-4-yl)-2-methyl-3H-imidazo[4,5-b]pyridin-3-yl)-2-fluorophenyl)piperazin-1-yl)-3,6,9,12-tetraoxatetradecyl)amino)-2-(2,6-dioxopiperidin-3-yl)isoindoline-1,3-dione, N,N-Diisopropylethylamine]
> 60% | 30 to 50% | < 10 nM | < 10 nM | Cc1nc2ccc(-c3ccnc(N)c3)nc2n1-c1ccc(CN2CCN(CC#Cc3ccc(N4CCC(C(=O)N5CCC(n6cc(CNc7cccc8c7C(=O)N(C7CCC(=O)NC7=O)C8=O)cn6)CC5)CC4)nc3)CC2)cc1 (stereo not drawn) [Compound 25, 4-(((1-(1-(1-(5-(3-(4-(4-(5-(2-aminopyridin-4-yl)-2-methyl-3H-imidazo[4,5-b]pyridin-3-yl)benzyl)piperazin-1-yl)prop-1-yn-1-yl)pyridin-2-yl)piperidine-4-carbonyl)piperidin-4-yl)-1H-pyrazol-4-yl)methyl)amino)-2-(2,6-dioxopiperidin-3-yl)isoindoline-1,3-dione]

Structure (SMILES) | inhibition at 0.3 µM (DYRK1A [1]) | inhibition at 0.3 µM (DYRK1B [2]) | Kd (DYRK1A [3]) | Kd (DYRK1B [4])
Cc1nc2ccc(-c3ccnc(N)c3)nc2n1-c1ccc(N2C3CCC2CN(CC#Cc2ccc(N4CCC(C(=O)N5CCC(n6cc(CNc7cccc8c7C(=O)N(C7CCC(=O)NC7=O)C8=O)cn6)CC5)CC4)nc2)C3)c(F)c1 (stereo not drawn) [Compound 21, 4-(((1-(1-(1-(5-(3-(8-(4-(5-(2-aminopyridin-4-yl)-2-methyl-3H-imidazo[4,5-b]pyridin-3-yl)-2-fluorophenyl)-3,8-diazabicyclo[3.2.1]octan-3-yl)prop-1-yn-1-yl)pyridin-2-yl)piperidine-4-carbonyl)piperidin-4-yl)-1H-pyrazol-4-yl)methyl)amino)-2-(2,6-dioxopiperidin-3-yl)isoindoline-1,3-dione] | 30 to 60% | < 30% | 10 to 100 nM | 100 to 1000 nM
